Reference: patent US20260102356A1, “METHOD FOR LOADING DIMERIC CD24 INTO HEK293 CELL EXTRACELLULAR VESICLES WITH ADAM10 GENE KNOCKED OUT” (Exocure Sweden AB, priority 2022, published 2026)
Where “and” joins values, the source holds several entries; their conditions need not be identical. Equal entries are not always repeated.

Tests used:
Format in all cases: cell-based, human
[1] = system: PBMCs; assay: PBMC inflammation model (anti-CD3/anti-CD28), IFN-γ in supernatant, Example 6
Method: • (1) Preparation of dimeric CD24-Exosomes: The plasmid construction, cell line screening and exosome preparation processes were consistent with those in Example 1. • (2) Loading of MyD88 Inhibitor Polypeptide: dimeric CD24 exosomes were mixed well with MyD88 inhibitor polypeptide (1 mg of MyD88 added to 1E+12 exosome particles). The solution was adjusted to a pH of 8.0 (or 9.0, 10.0) with Na2CO3, and then purified using Capto core700 to remove free MyD88 inhibitor polypeptide. The flow-through was collected to obtain CD24 exosomes loaded with MyD88 inhibitor polypeptide. The loading amount of MyD88 inhibitor polypeptide was assessed using ELISA (peptide loading technology referenced in patent: 202111263036.5). • (3) Detection of the immunosuppressive activity of different EVs and proteins in a PBMC inflammation model: PBMCs were used for the experiment. An inflammation model was established by using 1 μg/ml anti-human CD3 Antibody (coated) and 1 μg/ml anti-human CD28 Antibody (free). The positive drug (dexamethasone), free CD24-Fc fusion protein, and various doses of engineered dimeric CD24 loaded-EV and engineered dimeric CD24+MyD88 inhibitor polypeptide loaded-EV were administered for 72 h or 120 h, and their inhibitory activity on the inflammatory response of PBMCs was assessed

[2] = system: PBMCs; assay: PBMC inflammation model (anti-CD3/anti-CD28), IFN-γ in supernatant, Example 2; details: anti_hCD3 + anti_hCD28 1 μg/mL, treatment 10 μg/mL, 72 h
Method: (§1) Detection of the immunosuppressive activity of different EVs and proteins in a PBMC inflammation model: PBMCs were used for the experiment. An inflammation model was established by using 1 μg/ml anti-human CD3 Antibody (coated) and 1 μg/ml anti-human CD28 Antibody (free). The positive drug (dexamethasone), free CD24-Fc protein, and various doses of engineered dimeric CD24-loaded EV and monomer CD24-loaded EV were administered for 72 h, and their inhibitory activity on the inflammatory response of PBMCs was assessed.

[3] = system: PBMCs; assay: PBMC inflammation model (anti-CD3/anti-CD28), IFN-γ in supernatant, Example 4; details: for IFN-γ_pg/mL-Mean / Detected IFN-γ concentration: PBMC supernatant, anti_hCD3 + anti_hCD28 1 μg/mL, treatment 10 μg/mL, 72 h; for Detected IFN-γ concentration: single replicates
Method: as §1, with “using […] anti-human CD3” for “using 1 μg/ml anti-human CD3”, “(dexamethasone), free ApoE protein, and” for “(dexamethasone), free CD24-Fc protein, and”, “engineered dimeric ApoE-loaded EV were” for “engineered dimeric CD24-loaded EV and monomer CD24-loaded EV were”

[4] = in vitro PBMC inflammation model

## C[C@@H]1C[C@H]2[C@@H]3CCC4=CC(=O)C=C[C@]4(C)[C@@]3(F)[C@@H](O)C[C@]2(C)[C@@]1(O)C(=O)CO [Dexamethasone, dexamethasone]
[1]; PBMC supernatant, treatment time 72 h, treatment 10 μg/mL
  IFN-γ_pg/mL-Mean: 4.5 pg/mL
[1]; PBMC supernatant, treatment time 72 h, treatment 10 μg/mL, single replicates
  Detected IFN-γ concentration: 4.32 pg/mL and 4.76 pg/mL and 4.5 pg/mL
[2]
  IFN-γ_pg/mL-Mean: 6.0 pg/mL
[2]; single replicates
  Detected IFN-γ concentration: 5.62 pg/mL and 5.78 pg/mL and 6.51 pg/mL
[3]
  IFN-γ_pg/mL-Mean: 5.8 pg/mL
  Detected IFN-γ concentration: 5.5 pg/mL and 5.8 pg/mL and 6.2 pg/mL

## ApoE: free ApoE protein, comparator
[1]; [4]
  inflammation inhibitory activity compared to the model group: better inflammation inhibitory activity
[3]
  IFN-γ_pg/mL-Mean: 18092.0 pg/mL
  Detected IFN-γ concentration: 18563 pg/mL and 17689 pg/mL and 18024 pg/mL
[3]; [4]
  inflammation inhibitory activity compared to the model group: better inflammation inhibitory activity
